Marks after values point to notes of the source that are not given here.
Experiments:
EAN model rats [1] = test: Pre-experimental dose study: clinical score of neurological symptoms of EAN model rats; assay type: in vivo, Lewis rats; conditions: score 0-10
Description: Persons skilled in the art learn that, pharmacological effect and dose are in a proportional relationship, i.e., a dose-effect relationship, only within a certain range.
(§1) For each rat in an EAN model group, an inoculum was subcutaneously injected into foot pads of hind limbs on two sides, 200 μL/rat (100 μL per side). […] For the negative control group, isopyknic normal saline was injected. For each group of animals, medicine administration was started from the first day after immunization, for 30 days in total.
(§2) The day of molding serves as the 0th day, and after that is 30 days of observation period. Observation date is represented by D plus number, D1, D2 and D3 respectively represent Observation date 1, Observation date 2 and Observation date 3, and subsequent dates are represented in the same way. Rats were weighed once every two days, and clinical symptoms of all experimental animals were scored. Within one week of a peak period (D14-D20) of disease attack of animals, weighing and clinical symptom scoring were performed every day. Score standards are as below: 0, normal; 1, a soft tail; 2, unable to lift a tail; 3, unable to automatically correct a body position; 4, ataxia; 5, mild paralysis of hind limbs; 6, moderate paralysis of hind limbs; 7, severe paralysis of hind limbs; 8, paresis of four limbs; 9, severe paresis of four limbs; and 10, death.
(§3) Data is represented by mean±standard deviation (x±SD). For scores of symptoms and scores of algesia, a non-parametric test Mann-Whitney U was used to compare differences between two groups. When P is less than 0.05, a statistic difference occurs.

IL-4 = test: mRNA level of IL-4 in sciatic nerve tissue of EAN model rabbits (RT-PCR); assay type: in vivo, big-ear white rabbits; conditions: 14th day after modeling, ginkgolide groups 4.5 mg/kg intragastric 2 times a day, positive control 400 mg/kg·d i.p. 5 days
Description: (§4) 21 experimental groups, 8 rabbits in each group.
(§5) Positive control group: rabbit immune globulin, 400 mg/kg·d, intraperitoneal injection, for 5 consecutive days
(§6) The ginkgolide groups are set the same as Test example 1, i.e., include the ginkgolide A group to the ginkgolide K group (GA group to GK group), the bilobalide group (BB group) and the ginkgolide I group to the ginkgolide XI group, 18 groups in total. Ginkgolide used in each group has the same monomeric composition and ratio as those of Test example 1, but only differs in that the ginkgolide groups all use the same medicine administration dosage, i.e., 4.5 mg/kg.
(§7) Intragastric administration, 2 times a day. Medicines were dissolved in accessories (glycerin:ethanol=6:4 V/V) to reach 5 mg/ml, and then were configured to reach corresponding concentrations by using sterilized drinking water.
(§8) EAN rabbit modeling: a certain amount of bovine sciatic nerve myelin basic protein and an isopyknic complete Freund's adjuvant were taken, shaken up by using a test tube oscillator, sufficiently mixed, and then subcutaneously injected into a back of each rabbit at multiple points.
(§9) Anesthesia was performed on the 14th day after modeling, to take sciatic nerve tissue of rabbits, and total RNA was extracted by a Trizol method. Detection was performed by a RT-PCR method. (GBS is an autoimmune disease of a nervous system. In-vivo autoreactive T cells of a patient have a cellular immunologic response to myelin P2 antigens, to form a delayed allergic reaction peripheral nerve demyelination pathological injury. This process is mainly mediated by CD4^+T cells, also named initial Th cells that may be differentiated into Th1 and Th2 after antigenic stimulation. Th1 cytokines (represented by TNF-α and IL-12) mainly enhance a cell mediated immune response, and are inflammatory cytokines; and Th2 cytokines (represented by IL-4 and IL-10) mainly participate in an antibody mediated immune response, and have an immune down-regulation and anti-inflammation effect. In GBS and ENA research, unbalance of Th1/Th2 plays an important role in disease injuries.)
(§10) Data is represented by mean±standard deviation (x±SD). Differences between two groups were compared. When P is less than 0.05, a statistic difference occurs.

EAN model rats [2] = test: Test on algesia of ankle joint (pain reaction score) of EAN model rats; assay type: in vivo, Lewis rats; conditions: ankle dorsiflexion, score 0-5
Description: as §7, §1
Near a peak period of disease attack of EAN model animals, a test on algesia of ankle joints was performed on EAN model animals and adjuvant control animals, and rats in a rest state were forced to bend hind legs towards foot soles (dorsiflexion). For each side, 5 tests were made, at an interval of at least 5 s. For each time of dorsiflexion, if rats screamed or obviously withdrew paws, 1 score was counted. For each side, a total score is 0-5.
as §3

TNF-α = test: mRNA level of TNF-α in sciatic nerve tissue of EAN model rabbits (RT-PCR); assay type: in vivo, big-ear white rabbits; conditions: 14th day after modeling, ginkgolide groups 4.5 mg/kg intragastric 2 times a day, positive control 400 mg/kg·d i.p. 5 days
Description: as §4, §5, §6, §7, §8, §9, §10

IL-10 = test: mRNA level of IL-10 in sciatic nerve tissue of EAN model rabbits (RT-PCR); assay type: in vivo, big-ear white rabbits; conditions: 14th day after modeling, ginkgolide groups 4.5 mg/kg intragastric 2 times a day, positive control 400 mg/kg·d i.p. 5 days
Description: as §4, §5, §6, §7, §8, §9, §10

IL-12 = test: mRNA level of IL-12 in sciatic nerve tissue of EAN model rabbits (RT-PCR); assay type: in vivo, big-ear white rabbits; conditions: 14th day after modeling, ginkgolide groups 4.5 mg/kg intragastric 2 times a day, positive control 400 mg/kg·d i.p. 5 days
Description: as §4, §5, §6, §7, §8, §9, §10

EAN model rats [3] = test: Scores of neurological symptoms (clinical score) of EAN model rats, Test Example 1; assay type: in vivo, Lewis rats; set-up: key: 0 = normal, 5 = mild hind-limb paralysis, 10 = death; conditions: monomers 4.5 mg/kg, combinations 6.0-13.5 mg/kg; for Clinical score D12: D12, intragastric 2 times a day; for Clinical score D14: D14, intragastric 2 times a day; for Clinical score D22: D22, intragastric 2 times a day; for Clinical score D24: D24, intragastric 2 times a day; for Clinical score D26: D26, intragastric 2 times a day; for Clinical score D20: D20, intragastric 2 times a day
Description: 20 experimental groups, 10 […] in each group.
as §7, §1, §2, §3

Compound	Clinical score (D17) (EAN model rats [1]; 2.0 mg/kg)	Clinical score (D17) (EAN model rats [1]; 4.5 mg/kg)	Clinical score (D17) (EAN model rats [1]; 15 mg/kg)	Cytokines IL-4 (mRNA level, sciatic nerve tissue) (IL-4)	Pain reaction score (D18) (EAN model rats [2])	Cytokines TNF-α (mRNA level, sciatic nerve tissue) (TNF-α)	Cytokines IL-10 (mRNA level, sciatic nerve tissue) (IL-10)	Cytokines IL-12 (mRNA level, sciatic nerve tissue) (IL-12)	Clinical score D12 (EAN model rats [3])	Clinical score D14 (EAN model rats [3])	Clinical score D22 (EAN model rats [3])	Clinical score D24 (EAN model rats [3])	Clinical score D26 (EAN model rats [3])	Clinical score D20 (EAN model rats [3])	Clinical score D16 (EAN model rats [3]; D16, intragastric 2 times a day)	Clinical score (D17) (EAN model rats [3]; D17, intragastric 2 times a day)	Clinical score D19 (EAN model rats [3]; D19, intragastric 2 times a day)
CC(C)(C)[C@]1(O)CC2OC(=O)CC23C(=O)OC2OC(=O)[C@H](O)C231 (stereo partly drawn) [Bilobalide, bilobalide]	5.70 ± 0.67	4.80 ± 0.63*^Δ	4.90 ± 0.88*^Δ	0.792 ± 0.065	2.9 ± 0.74	3.054 ± 0.182	0.783 ± 0.128	4.087 ± 0.275	–	–	–	–	–	–	–	–	–
C[C@@H]1C(=O)O[C@H]2C[C@@]34[C@H]5C[C@@H](C(C)(C)C)[C@]36[C@@H](OC(=O)[C@@H]6O)O[C@@]4(C(=O)O5)[C@]21O [Ginkgolide A, ginkgolide A]	7.00 ± 0.82	6.10 ± 0.74*^Δ	6.00 ± 1.25*^Δ	0.569 ± 0.048	2.0 ± 0.67	4.693 ± 0.115	0.584 ± 0.039	5.977 ± 0.141	4.4 ± 0.5	5.3 ± 0.5	4.4 ± 0.5	3.7 ± 0.8	3.1 ± 0.6	–	–	–	–
CC1C(=O)OC2C(O)C34C5CC(C(C)(C)C)C36C(OC(=O)C6O)OC4(C(=O)O5)C12O (stereo not drawn) [Ginkgolide B, ginkgolide B]	6.10 ± 1.10	5.10 ± 0.57*^Δ	5.20 ± 0.63*^Δ	0.769 ± 0.041	3.0 ± 0.67	2.978 ± 0.102	0.813 ± 0.055	3.928 ± 0.409	–	–	–	–	–	–	–	–	–
C[C@@H]1C(=O)O[C@@H]2[C@H]1[C@@]13OC4OC(=O)[C@H](O)C45[C@H](C(C)(C)C)[C@@H](O)C(OC1=O)[C@]53[C@H]2O (stereo partly drawn) [Ginkgolide M, ginkgolide M]	7.10 ± 0.32	6.40 ± 0.97*^Δ	6.50 ± 0.71*^Δ	0.558 ± 0.050	1.4 ± 0.52	4.797 ± 0.147	0.550 ± 0.061	6.260 ± 0.411	4.5 ± 0.7	5.6 ± 0.5	4.6 ± 0.5	4.0 ± 0.7	3.2 ± 0.6	5.5 ± 0.5	–	–	–
ginkgolide C	6.90 ± 0.88	6.10 ± 0.57*^Δ	6.00 ± 0.67*^Δ	0.585 ± 0.053	1.9 ± 0.88	4.548 ± 0.154	0.561 ± 0.090	6.009 ± 0.357	4.4 ± 0.7	5.2 ± 0.8	4.4 ± 0.5	3.8 ± 0.8	3.1 ± 0.6	–	–	–	–
ginkgolide J	7.10 ± 0.57	6.40 ± 0.84*^Δ	6.30 ± 0.82*^Δ	0.551 ± 0.050	1.3 ± 0.67	4.810 ± 0.070	0.501 ± 0.037	6.211 ± 0.489	4.4 ± 0.7	5.5 ± 0.5	4.6 ± 0.5	4.0 ± 0.7	3.2 ± 0.6	5.6 ± 0.5	6.5 ± 0.5	7.4 ± 0.5	6.2 ± 0.6
CC1=C2[C@@H](OC1=O)[C@H](O)[C@]13[C@H]4C[C@@H](C(C)(C)C)[C@]15[C@@H](OC(=O)[C@@H]5O)O[C@@]23C(=O)O4 [Ginkgolide K, ginkgolide K]	7.20 ± 0.42	6.50 ± 0.85*^Δ	6.70 ± 0.82*^Δ	0.557 ± 0.046	1.2 ± 0.63	4.739 ± 0.094	0.524 ± 0.026	6.412 ± 0.169	4.5 ± 0.7	5.6 ± 0.5	4.5 ± 0.5	3.9 ± 0.7	3.1 ± 0.6	5.5 ± 0.5	–	–	–

Reference: patent US20220193030A1, “USE OF GINKGO TERPENE LACTONE IN PREPARING DRUG FOR PREVENTING AND/OR TREATING GUILLAIN-BARRE-STROHL SYNDROME” (CHENGDU BAIYU PHARMACEUTICAL CO., LTD., priority 2019, published 2022)
